Assay results as given in US8129424B2, “Indole derivatives as histamine 3 receptor inhibitors for the treatment of cognitive and sleep disorders, obesity and other CNS disorders” (Athersys, Inc., priority 2005, dated 2012).

Assays:
[1] = biological target: T1, human histamine H3 receptor (Homo sapiens, UniProt Q9Y5N1); assay: Calcium mobilization assay (FLIPR), inhibition of (R)-α-methylhistamine-stimulated Ca2+ flux in RAGE-H3 cells; type: cell-based; conditions: determined using FLIPR
T1 construct: expressed in transfected cells; host or cells: HT1080-Gqαi5 cells (human), pFG8-HH3 RAGE vector integrated; methotrexate-amplified clone RAGE-H3
Method: The human histamine H3 receptor was stably expressed in HT1080 cells containing the chimeric G-protein, Gq[…]i5 (Coward et al., Anal Biochem 1999; 270:242-8). HT1080-Gqαi5 cells were grown in alpha-modified MEM containing 10% fetal bovine serum and 7 μg/ml blasticidin at 37° C. in 5% CO2/95% atmosphere. Cells (4.8×10^9) were irradiated with 50 rads from a ^137Cs source and the pFG8-HH3 RAGE (Random Activation of Gene Expression; see Harrington et al., Nature Biotechnology. 2001; 19:440-45) vector was subsequently integrated into the cells via electroporation (250V, 600 μF, 50Ω). The RAGE vector pFG8-HH3 contained cDNA sequence coding for the first exon (83 amino acids) of human H3 receptor. After electroporation, cells were plated in T75 flasks and grown in alpha-modified MEM. The culture medium was replaced 48 hours after electroporation with alpha-modified MEM, 10% fetal bovine serum, 500 μg/ml hygromycin B and 3 μg/ml puromycin. Medium was replaced every four days during cell expansion. To identify RAGE activated cells expressing the H3 receptor, pools of approximately 10,000 colonies (5×10^7-1.5×10^8 cells total) were screened by PCR for the desired gene product (using primers specific to the RAGE vector and exon 2 of the H3 receptor). […] Positive 100 cells/well pools were identified by PCR, confirmed by sequencing, and subsequently subcloned to 0.8 cells/well. Once clones expressing the H3 receptor were identified by PCR analysis, assays (FLIPR or radioligand binding) were performed to confirm that the activated gene produced functional protein. The protein expression in the initial clones obtained from the RAGE library was increased by growth in the presence of methotrexate. Since the integrated RAGE vector contains the DHFR gene, such treatment selects for cells that have amplified the genetic locus containing the RAGE insert. Subclones obtained after methotrexate amplification were tested for functional activity in FLIPR assays to identify the clone that was most suitable for HTS. The final HT1080-Gqαi5 RAGE clone (RAGE-H3) expressing the human histamine H3 receptor was grown in alpha-modified MEM containing 10% fetal bovine serum, 3 μg/ml puromycin, 500 μg/ml hygromycin B, 3.2 μM methotrexate at 37° C. in 5% CO2/95% atmosphere.
RAGE-H3 or HT1080-mH3 cells were seeded in black 384-well plates and incubated overnight at 37° C. in a 5% CO2/95% atmosphere. After removing medium, cells were treated with CsCl Ringer's buffer (136 mM CsCl, 5.4 mM KCl, 5.5 mM D-Glucose, 20 mM Hepes, pH 7.4, 2.1 mM MgCl2, 1.2 mM CaCl2) containing the Calcium 3 dye (Molecular Device, CA) and probenecid (3.75 mM) for 60 minutes, according to manufacture's instruction. Compounds were diluted in CsCl Ringer's buffer containing 0.2% bovine serum albumin and 1.0% DMSO. The dose response of (R)-α-methylhistamine-stimulated Ca^2+ flux was measured on a Fluorometric Imaging Plate Reader (FLIPR, Molecular Devices, CA) and the concentration of (R)-α-methylhistamine to stimulate 75% of maximum response was used to test the inhibitory effect of compounds.
All data were analyzed by nonlinear least squares curve fitting using Prism 4.0 software. The KD and Bmax for [^125I]iodoproxyfan were derived from the equation RL=RtL/(KD+L), where RL is concentration of receptor-bound ligand at equilibrium, L is the free ligand concentration, and Rt is the total receptor concentration (i.e., Bmax). For competition binding experiments, IC50 values (the concentration of compound producing 50% inhibition of specific binding) and Hill Coefficients (nH) were derived from fitting the data to a 4-parameter logistic equation. Apparent Ki values were calculated using the Cheng-Prussof equation of Ki=IC50/(1+(L/KD)), where L is the ligand concentration. […]

H3 receptor [2] = conditions: cat, cited from earlier work
[3] = cited from earlier work
H3 receptor [4] = biological target: T2, H3 receptor (Rattus norvegicus, UniProt Q9QYN8); conditions: rats; cited from earlier work
T2 construct: host or cells: living rats

H3 receptor [5] = conditions: in vivo studies; cited from earlier work

T1 sequence (Q9Y5N1 whole entry): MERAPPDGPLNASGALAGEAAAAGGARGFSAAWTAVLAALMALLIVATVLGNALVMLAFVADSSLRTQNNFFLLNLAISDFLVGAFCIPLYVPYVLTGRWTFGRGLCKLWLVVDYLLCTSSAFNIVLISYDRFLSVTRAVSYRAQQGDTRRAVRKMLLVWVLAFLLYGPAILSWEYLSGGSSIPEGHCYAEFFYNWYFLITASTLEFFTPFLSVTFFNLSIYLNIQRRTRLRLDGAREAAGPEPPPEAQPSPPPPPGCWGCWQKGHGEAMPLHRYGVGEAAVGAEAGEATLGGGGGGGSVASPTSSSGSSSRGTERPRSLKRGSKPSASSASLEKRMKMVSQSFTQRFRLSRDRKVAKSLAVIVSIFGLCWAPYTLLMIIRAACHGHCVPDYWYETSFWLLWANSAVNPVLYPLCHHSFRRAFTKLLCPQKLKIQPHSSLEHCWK
T2 sequence (Q9QYN8 whole entry): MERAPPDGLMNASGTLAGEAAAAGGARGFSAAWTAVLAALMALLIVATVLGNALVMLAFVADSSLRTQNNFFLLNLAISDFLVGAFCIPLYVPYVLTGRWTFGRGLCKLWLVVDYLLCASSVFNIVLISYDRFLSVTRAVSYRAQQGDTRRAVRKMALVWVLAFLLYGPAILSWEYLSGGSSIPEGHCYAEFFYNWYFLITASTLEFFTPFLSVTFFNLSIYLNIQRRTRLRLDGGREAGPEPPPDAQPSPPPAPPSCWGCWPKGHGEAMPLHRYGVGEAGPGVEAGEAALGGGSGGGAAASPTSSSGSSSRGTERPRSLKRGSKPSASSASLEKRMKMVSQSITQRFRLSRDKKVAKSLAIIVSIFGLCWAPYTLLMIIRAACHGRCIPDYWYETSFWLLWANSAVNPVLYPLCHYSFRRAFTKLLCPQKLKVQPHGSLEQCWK

Cc1cc2ccccc2n1-c1ccc(OCCCN2CCCC2)c(Cl)c1 [Example 15, 1-[3-Chloro-4-(3-pyrrolidin-1-ylpropoxy)phenyl]-2-methyl-1H-indole]
IC50 [1]: < 1 µM

COc1ccc2c(c1)cc(C)n2-c1ccc(OCCCN2CCCC2)cc1 [Example 5, 5-Methoxy-2-methyl-1-[4-(3-pyrrolidin-1-ylpropoxy)phenyl]-1H-indole]
IC50 [1]: < 0.1 µM

Clc1cccc2c1ccn2-c1ccc(OCCCN2CCCC2)cc1 [Example 8, 4-Chloro-1-[4-(3-pyrrolidin-1-ylpropoxy)phenyl]-1H-indole]
IC50 [1]: < 1 µM

COc1ccc2c(c1)cc(C)n2-c1ccc(C#CCCN2CCCC2)cc1 [Example 17, 5-Methoxy-2-methyl-1-[4-(4-pyrrolidin-1-ylbut-1-ynyl)phenyl]-1H-indole]
IC50 [1]: < 0.1 µM

Clc1ccc2c(ccn2-c2ccc(OCCCN3CCCC3)cc2)c1 [Example 10, 5-Chloro-1-[4-(3-pyrrolidin-1-ylpropoxy)phenyl]-1H-indole]
IC50 [1]: < 1 µM

c1ccc2c(c1)ccn2-c1ccc(OCCCN2CCCC2)cc1 [Example 4, 1-[4-(3-Pyrrolidin-1-ylpropoxy)phenyl]-1H-indole]
IC50 [1]: < 0.1 µM

Brc1ccc2c(ccn2-c2ccc(OCCCN3CCCC3)cc2)c1 [Example 7, 5-Bromo-1-[4-(3-pyrrolidin-1-ylpropoxy)phenyl]-1H-indole]
IC50 [1]: < 1 µM

C[C@@H](N)Cc1cnc[nH]1 [RAMHA]
deep slow wave sleep (H3 receptor [2]; oral administration): significant increase

Cc1ccc2c(ccn2-c2ccc(OCCCN3CCCC3)cc2)c1 [Example 6, 5-Methyl-1-[4-(3-pyrrolidin-1-ylpropoxy)phenyl]-1H-indole]
IC50 [1]: < 1 µM

S=C(NC1CCCCC1)N1CCC(c2cnc[nH]2)CC1 [thioperamide]
durations of every convulsive phase ([3]; after electrically-induced convulsions): significantly and dose-dependently decrease
electroconvulsive threshold ([3]; in vivo): increase
wakefulness (H3 receptor [2]): enhanced wakefulness in a dose-dependent fashion
slow-wave and REM sleep (H3 receptor [4]): decrease
wakefulness (H3 receptor [4]): increase wakefulness
synthesis and release of histamine (H3 receptor [5]): increase

COc1ccc2c(ccn2-c2ccc(OCCCN3CCCC3)cc2)c1 [Example 9, 5-Methoxy-1-[4-(3-pyrrolidin-1-ylpropoxy)phenyl]-1H-indole]
IC50 [1]: < 1 µM

COc1cc(-n2c(C)cc3ccccc32)ccc1OCCCN1CCCC1 [Example 14, 1-[3-Methoxy-4-(3-pyrrolidin-1-ylpropoxy)phenyl]-2-methyl-1H-indole]
IC50 [1]: < 1 µM

c1ccc2c(c1)cc(C1CC1)n2-c1ccc(OCCCN2CCCC2)cc1 [Example 37, 2-Cyclopropyl-1-[4-(3-pyrrolidin-1-ylpropoxy)phenyl]-1H-indole]
IC50 [1]: < 0.1 µM
